Test results taken from article PMC11206691, “N-Hydroxypiridinedione: A Privileged Heterocycle for Targeting the HBV RNase H” (Molecules, 2024).
Like-named read-outs stand apart in the source and are kept apart here.

Columns and labels:
HBV replication = experiment: qPCR HBV replication inhibition assay in HepDES19 cells; format: cell-based, Hepatitis B virus (HBV) genotype D; conditions: 72 h, (+) DNA qPCR
Description: (§1) HepDES19 cells were incubated on collagen-coated plates at 37 °C with 5% CO2 and saturating humidity in Dulbecco’s modified Eagle’s medium (DMEM/F12) (Cytiva Life Sciences, Marlborough, MA, USA) supplemented with 10% fetal bovine serum (FBS), penicillin (100 IU/mL), and streptomycin (100 µg/mL). HepDES19 cells are HepG2 cells that carry a stably transfected HBV genotype D genome under the control of a tetracycline repressible promoter. Cells were maintained in the presence of 1 µg/mL tetracycline to repress the expression of the stably integrated HBV genome, and HBV replication was induced by the withdrawal of tetracycline from the culture medium.
HBV replication inhibition was measured in HepDES19 cells induced to replicate HBV by the removal of tetracycline using a strand-preferential quantitative PCR assay as previously described. Cells were seeded at 4 × 10^4 cells/well in 96-well plates for 48 h. Serially diluted compound was then added to cells at a final concentration of 1% DMSO for 72 h, after which the cells were lysed and qPCR was performed as described in Li et al.. EC50 values were calculated from the (+) DNA data with GraphPad Prism using the four-parameter log (inhibitor) versus response algorithm with the bottom value set to zero. Three or more replicate assays were performed on different days.

[1] = Solubility limit assay (turbidity, DMEM-F12 + 10% FBS); format: physicochemical; conditions: pH 7.4, DMEM-F12 with 10% FBS, 1% DMSO, upper limit 200 µM
Description: Compound solubility limits were tested in DMEM-F12 without phenol red (Gibco, Grand Island, NY, USA) supplemented with 10% FBS (pH 7.2–7.4) to mimic cell culture experiments, as we have performed previously. Compounds were serially diluted in buffer at pH 7.4 in 384-well, optically clear plates (upper limit 200 µM, DMSO 1%) and read on a plate reader at 620 nm. Compound concentration (µM) was plotted against optical density (OD) and a solubility limit was determined by identifying an inflection point where there was a significant increase in optical density due to increasing turbidity; the concentration of the compound at the inflection point was defined as the solubility limit. Two or more replicate assays were performed on different days for each compound.

[2] = Parallel artificial membrane permeability assay; format: in vitro ADME; set-up: key to Papp Interpretation: High rate of apparent passive permeability (>1 × 10^−6 cm/s); Low rate of apparent passive permeability (<1 × 10^−6 cm/s); INS: Compound was insoluble in 100% DMSO; conditions: for Papp interpretation (high/low permeability category) at 2 h, 200 µM / Papp at 2 h, 200 µM: PAMPA; for Papp interpretation (high/low permeability category) at 2 h, 200 µM: pH 7.4, pH 7.4; for Papp at 2 h, 200 µM: pH 7.4, pH 7.4, 200 μM; for Papp at 2 h, 200 µM / Papp: room temperature, 2 h; for Papp Interpretation: pH 7.4; for Papp: pH 7.4, 200 μM
Description: Apparent passive permeability (Papp) was assessed at pH 7.4 using a 96-well donor/acceptor cassette (Sigma Aldrich, Burlington, MA, USA), which mimics the apical and basolateral sides of the small intestine epithelium, as we have described previously. Briefly, an artificial membrane composed of 1% w/v lethicin/dodecane was added to the poly (vinylidene fluoride) (PVDF) membrane filter. Once dry, compounds (200 μM) were diluted in buffer at pH 7.4 and added to the donor side of the membrane, and the same pH buffer was added to the acceptor side. The cassette was assembled and incubated at room temperature with shaking at 250 rpm for 2 h, after which 100 μL of the acceptor well was retrieved and the experimental compound absorbance was read on a plate reader between 200 and 600 nm. Compound Papps (cm/s) values were determined by normalizing to the compound absorbance at equilibrium, incubation time, and membrane porosity Two or more replicate assays were conducted on different days.

MTS cytotoxicity assay = format: cell-based; conditions: human, HepDES19 cells
Description: as §1
Cell viability was assessed using the CellTiter 96^TM Aqueous Non-Radioactive Cell Proliferation assay (MTS) (Promega, Madison, WI, USA) as described previously. HepDES19 cells were seeded at 1 × 10^4 cells per well in 96-well, and compound was added after 48 h. Cells incubated with serially diluted compound (1% DMSO) for 72 h. Bac absorbance values were subtracted, and data were converted to percent cell viability. The cytotoxic concentration 50% (CC50) values were calculated with GraphPad Prism by using the four-parameter variable response log (inhibitor) versus response algorithm with the bottom value set to zero. Three or more replicate assays were performed on different days.

[3] = Hepatitis B virus, read-out: EC50
[4] = DMEM-F12 without phenol red with 10% FBS, plasma or biological fluid, kinetic from dmso stock

CC(=NOC(CNC(=O)c1nccs1)c1cc(F)cc(F)c1)c1c(C)cc(=O)n(O)c1O (centres unmarked) [Compound 50, N-(2-(3,5-Difluorophenyl)-2-(((1-(1,2-dihydroxy-4-methyl-6-oxo-1,6-dihydropyridin-3-yl)ethylidene)amino)oxy)ethyl)thiazole-2-carboxamide]
EC50 (HBV replication; [3]): 4 ± 1.5 µM | melting point: 117 to 119 °C (dec.) | solubility [1, 4]: > 200 µM | Papp interpretation (high/low permeability category) at 2 h, 200 µM [2]: > 1 ×10⁻⁶ cm/s | Papp at 2 h, 200 µM [2]: 4.67 ×10⁻⁶ cm/s | CC50 at 72 h (MTS cytotoxicity assay): 100 µM

CC(=NOC(CNC(=O)c1ccc2ccccc2n1)c1cc(F)cc(F)c1)c1c(C)cc(=O)n(O)c1O (centres unmarked) [Compound 49, N-(2-(3,5-Difluorophenyl)-2-(((1-(1,2-dihydroxy-4-methyl-6-oxo-1,6-dihydropyridin-3-yl)ethylidene)amino)oxy)ethyl)quinoline-2-carboxamide]
EC50 (HBV replication; [3]): 3.5 ± 0.8 µM | melting point: 108 to 110 °C (dec.) | solubility [1, 4]: > 200 µM | Papp interpretation (high/low permeability category) at 2 h, 200 µM [2]: > 1 ×10⁻⁶ cm/s | Papp at 2 h, 200 µM [2]: 6.71 ×10⁻⁶ cm/s | CC50 at 72 h (MTS cytotoxicity assay): 99.9 ± 0.2 µM

CC(=NOC(C)c1ccccc1)c1c(C)cc(=O)n(O)c1O (centres unmarked) [Compound 46, 1,6-Dihydroxy-4-methyl-5-(1-((1-phenylethoxy)imino)ethyl)pyridin-2(1H)-one]
EC50 (HBV replication; [3]): 3.1 ± 0.5 µM | melting point: 130 to 132 °C | solubility [1, 4]: > 200 µM | Papp interpretation (high/low permeability category) at 2 h, 200 µM [2]: > 1 ×10⁻⁶ cm/s | Papp at 2 h, 200 µM [2]: 3.19 ×10⁻⁶ cm/s | CC50 at 72 h (MTS cytotoxicity assay): 100 µM

COc1cccc(CON=C(C)c2c(C)cc(=O)n(O)c2O)c1 [Compound 35, 1,6-Dihydroxy-5-(1-(((3-methoxybenzyl)oxy)imino)ethyl)-4-methylpyridin-2(1H)-one]
EC50 (HBV replication; [3]): 1.9 ± 1.2 µM | melting point: 120 to 122 °C (dec.) | solubility [1, 4]: 117 µM | Papp interpretation (high/low permeability category) at 2 h, 200 µM [2]: > 1 ×10⁻⁶ cm/s | Papp at 2 h, 200 µM [2]: 6.19 ×10⁻⁶ cm/s | CC50 at 72 h (MTS cytotoxicity assay): 90 ± 14.1 µM

2,6-Diamino-4-(3-methoxyphenoxy)-1,6-dihydropyrimidine 1-oxide [Compound 55]
solubility [1]: > 200 µM | Papp Interpretation [2]: H (High rate of apparent passive permeability (>1 × 10^−6 cm/s)) | Papp [2]: 6.17e-06 cm/s

C#CCON=C(C)c1c(C)cc(=O)n(O)c1O [Compound 42, 1,6-Dihydroxy-4-methyl-5-(1-((prop-2-yn-1-yloxy)imino)ethyl)pyridin-2(1H)-one]
EC50 (HBV replication; [3]): 5.4 ± 2.2 µM | melting point: 78 to 80 °C (dec.) | solubility [1, 4]: 167 µM | Papp interpretation (high/low permeability category) at 2 h, 200 µM [2]: > 1 ×10⁻⁶ cm/s | Papp at 2 h, 200 µM [2]: 3.74 ×10⁻⁶ cm/s | CC50 at 72 h (MTS cytotoxicity assay): 81.7 ± 18.6 µM

COC(=O)c1ccc(CON=C(C)c2c(C)cc(=O)n(O)c2O)c(F)c1 [Compound 45, Methyl 4-((((1-(1,2-dihydroxy-4-methyl-6-oxo-1,6-dihydropyridin-3-yl)ethylidene)amino)oxy)methyl)-3-fluorobenzoate]
EC50 (HBV replication; [3]): 3.2 ± 0.4 µM | melting point: 130 °C (dec.) | solubility [1, 4]: > 200 µM | Papp interpretation (high/low permeability category) at 2 h, 200 µM [2]: > 1 ×10⁻⁶ cm/s | Papp at 2 h, 200 µM [2]: 3.54 ×10⁻⁶ cm/s | CC50 at 72 h (MTS cytotoxicity assay): 90.2 ± 13.8 µM

C#CCCON=C(C)c1c(C)cc(=O)n(O)c1O [Compound 41, 5-(1-((But-3-yn-1-yloxy)imino)ethyl)-1,6-dihydroxy-4-methylpyridin-2(1H)-one]
EC50 (HBV replication; [3]): 1.2 ± 0.2 µM | melting point: 86 to 89 °C (dec.) | solubility [1, 4]: > 200 µM | Papp interpretation (high/low permeability category) at 2 h, 200 µM [2]: > 1 ×10⁻⁶ cm/s | Papp at 2 h, 200 µM [2]: 2.24 ×10⁻⁶ cm/s | CC50 at 72 h (MTS cytotoxicity assay): 57.5 ± 32.4 µM

COC(=O)c1ccc(CO/N=C(\C)C2C(=O)NC(=O)NC2=O)cc1 [Compound 59, Methyl 4′-((((1-(2,4,6-Trioxohexahydropyrimidin-5-yl)ethylidene)amino)oxy)methyl)benzoate]
EC50 (HBV replication): lacked any inhibitory activity | melting point: > 250 °C | Solubility Limit [1]: INS | Papp Interpretation [2]: INS | Papp [2]: INS

COC(=O)c1ccc(CON=C(C)c2c(C)cc(=O)n(O)c2O)c(C#N)c1 [Compound 44, 2′-Cyano-4′-((((1′-(1,2-dihydroxy-4-methyl-6-oxo-1,6-dihydropyridin-5-yl)ethylidene)amino)oxy)methyl)methyl benzoate]
EC50 (HBV replication; [3]): 7.7 ± 1.4 µM | melting point: 115 °C | solubility [1, 4]: > 200 µM | Papp interpretation (high/low permeability category) at 2 h, 200 µM [2]: > 1 ×10⁻⁶ cm/s | Papp at 2 h, 200 µM [2]: 5.42 ×10⁻⁶ cm/s | CC50 at 72 h (MTS cytotoxicity assay): 91.9 ± 11.2 µM

C#CCCCON=C(C)c1c(C)cc(=O)n(O)c1O [Compound 40, 1,6-Dihydroxy-4-methyl-5-(1-((pent-4-yn-1-yloxy)imino)ethyl)pyridin-2(1H)-one]
EC50 (HBV replication; [3]): 2.5 ± 0.6 µM | melting point: 93 to 95 °C (dec.) | solubility [1, 4]: > 200 µM | Papp interpretation (high/low permeability category) at 2 h, 200 µM [2]: > 1 ×10⁻⁶ cm/s | Papp at 2 h, 200 µM [2]: 3.36 ×10⁻⁶ cm/s | CC50 at 72 h (MTS cytotoxicity assay): 53.6 ± 31.4 µM

CSc1ccc(CON=C(C)c2c(C)cc(=O)n(O)c2O)cc1 [Compound 33, 1,6-Dihydroxy-4-methyl-5-(1-(((4(methylthio)benzyl)oxy)imino)ethyl)pyridin-2(1H)-one]
EC50 (HBV replication; [3]): 1.4 ± 0.7 µM | melting point: 110 to 115 °C (dec.) | solubility [1, 4]: > 200 µM | Papp interpretation (high/low permeability category) at 2 h, 200 µM [2]: > 1 ×10⁻⁶ cm/s | Papp at 2 h, 200 µM [2]: 4.35 ×10⁻⁶ cm/s | CC50 at 72 h (MTS cytotoxicity assay): 100 µM

Nc1cc(Oc2ccc(Cl)cc2Cl)nc(N)[n+]1[O-] [Compound 57, 2,6-Diamino-4-(2′,4′-dichloro)-1,6-dihydropyrimidine 1-oxide]
EC50 (HBV replication; [3]): > 100 µM | melting point: 160 °C | solubility [1, 4]: 100 µM | Papp interpretation (high/low permeability category) at 2 h, 200 µM [2]: > 1 ×10⁻⁶ cm/s | Papp at 2 h, 200 µM [2]: 2.99 ×10⁻⁶ cm/s

Nc1cc(Oc2cc(Cl)c(Cl)cc2Cl)nc(N)[n+]1[O-] [Compound 56, 2,6-Diamino-4-(2′,4′,5′-trichloro)-1,6-dihydropyrimidine 1-oxide]
EC50 (HBV replication; [3]): > 100 µM | melting point: 135 °C | solubility [1, 4]: 167 µM | Papp interpretation (high/low permeability category) at 2 h, 200 µM [2]: > 1 ×10⁻⁶ cm/s | Papp at 2 h, 200 µM [2]: 3.85 ×10⁻⁶ cm/s

COc1ccc(COc2cc(N)[n+]([O-])c(N)n2)cc1 [Compound 58, 2,6-Diamino-4-((4-methoxybenzyl)oxy)pyrimidine 1-oxide]
EC50 (HBV replication; [3]): > 100 µM | melting point: > 250 °C | solubility [1, 4]: > 200 µM | Papp interpretation (high/low permeability category) at 2 h, 200 µM [2]: > 1 ×10⁻⁶ cm/s | Papp at 2 h, 200 µM [2]: 2.56 ×10⁻⁶ cm/s
